Holding throughout (assay type): physicochemical
A short description of data set [1]: Dissolution of compressed tablets in water (Example 10). Conditions: compressed tablets of ivermectin alone. Here is the method: The dissolution of said tablets to yield a clear infinitely diluable aqueous solution of ivermectin is very rapid (15 minutes with gentle agitation).
A short description of data set [2]: Dissolution rate, solution/adsorption products versus comparison (Example 11). The conditions noted are these: added alone or dissolved in glycerol formal to an aqueous surfactant solution. From the text:
37 parts of each of the solutions produced in Examples 5 and 6 is dry blended with I part of Accurel powder (50-75% void space). This mixture is then blended with 12 parts of Cab-O-Sil to produce a dry free-flowing powder which may be used as such or tableted as in Example 10.

A short description of data set [3]: Solubility in deionized distilled water (Example 14). Here is the method: A solution of 5% (50 mg/ml) w/v ivermectin is prepared by dissolving the product in Examples 1-5 and 7-9 in sufficient deionized distilled water. A mixture of an equivalent amount of ivermectin in deonized distilled water is only marginally soluble (1-4 mcg/ml). Therefore, the solubility of a poorly water soluble drug is enhanced (50,000 mcg/ml).

A short description of data set [4]: Dissolution of thermoplastic solids in deionized distilled water (Example 12). Conditions: ivermectin into an aqueous solution of an equivalent amount of thermoplastic surfactant.

A value given as a limit tells only on which side of the number the result lay.

Consider ivermectin, for which, in data set [1], the “time within which tablets do not dissolve or disintegrate” value was over 3 days. Further, the “dissolution rates compared with the invention” value in data set [2] is given as “less than those observed with the invention”. The same substance registered a solubility in data set [3] of 1 to 4 µg/mL. Besides, in data set [4], the “dissolution rate compared with the method of the invention” value is reported as “significantly slower”.

The record behind these values is EP0179583A1, “A system for enhancing the water dissolution rate and solubility of poorly soluble drugs” (Merck & Co., Inc., priority 1984, dated 1986).
